US10717725B2, “Pyrrolidine GPR40 modulators” (BRISTOL-MYERS SQUIBB COMPANY, priority 2014, dated 2020)
Where a name gives a salt, the structure may show the parent alone. Read-outs that look alike come from different tables or passages of the source.

Key:
[1] = molecular target: T1, hGPR40 (Homo sapiens, UniProt O14842); test: FDSS-based intracellular calcium assay in cell lines expressing GPR40; design: 3xFLAG; expressed in transfected cells; conditions: intracellular Ca2+ response, cells expressing GPR40, FDSS reader
T1 sequence (O14842 whole entry): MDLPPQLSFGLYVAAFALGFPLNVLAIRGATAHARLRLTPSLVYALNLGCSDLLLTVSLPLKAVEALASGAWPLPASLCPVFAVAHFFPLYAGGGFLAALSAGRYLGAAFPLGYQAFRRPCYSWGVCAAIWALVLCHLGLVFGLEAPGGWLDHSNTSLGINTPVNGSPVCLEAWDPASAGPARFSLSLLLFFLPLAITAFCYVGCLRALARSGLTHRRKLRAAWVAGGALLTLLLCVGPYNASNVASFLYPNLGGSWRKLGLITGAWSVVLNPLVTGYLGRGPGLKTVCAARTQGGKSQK
Procedure: FDSS-Based Intracellular Calcium Assay
Cell lines expressing GPR40 are generated using the pDEST-3×FLAG gene expression system and are cultured in culture medium comprising the following components: F12 (Gibco #11765), 10% lipid deprived fetal bovine serum, 250 μg/ml zeocin and 500 μg/ml G418. To conduct the fluorescent imaging plate reader (FLIPR)-based calcium flux assay to measure intracellular Ca^2+ response, cells expressing GPR40 are plated on 384 well plates (BD Biocoat #356697) at a density of 20,000 cells/20 μL medium per well in phenol red and serum-free DMEM (Gibco #21063-029) and incubated overnight. Using BD kit #s 80500-310 or -301, the cells are incubated with 20 μL per well of Hank's buffered salt solution with 1.7 mM probenecid and Fluo-3 at 37° C. for 30 min. Compounds are dissolved in DMSO and diluted to desired concentrations with assay buffer and added to the cells as 3× solution (20 μL per well). Run fluorescence/luminescence reader FDSS (Hamamatsu) to read intracellular Ca^2+ response.

[2] = molecular target: T1, hGPR40

| Compound | EC50 [1] [nM] | EC50 [2] [nM] |
| --- | --- | --- |
| 2-((2S,3S,4R)-1-(4-(((3,4-trans)-1-(5-Chloro-2-methoxypyridin-4-yl)-3-methylpiperidin-4-yl)oxy)phenyl)-4-(3-methoxy-2-methylpropoxy)-3-methylpyrrolidin-2-yl)acetic acid [Example 21, Isomer 1] | 120 |  |
| 2-((2S,3S,4R)-1-(4-(((3,4-trans)-1-(5-Chloro-2-methoxypyridin-4-yl)-3-methylpiperidin-4-yl)oxy)phenyl)-4-(3-methoxy-2-methylpropoxy)-3-methylpyrrolidin-2-yl)acetic acid [Example 21, Isomer 2] | 100 |  |
| COCCCO[C@H]1CN(c2ccc(O[C@@H]3CCN(c4cc(OC)ncc4Cl)C[C@H]3C)cc2)[C@@H](CC(=O)O)[C@@H]1C (single isomer, unassigned) [Example 1] | 56 | 5 |
| COCCCO[C@H]1CN(c2ccc(OC3CCN(c4cc(OC)ncc4Cl)CC3C)c(F)c2)[C@@H](CC(=O)O)[C@@H]1C (single isomer, unassigned) [Example 7] | 97 |  |
| CCOc1ccc(F)c(N2CCC(Oc3ccc(N4C[C@H](OCCCOC)[C@@H](C)[C@@H]4CC(=O)O)cn3)C(C)C2)c1 (single isomer, unassigned) [Example 9, HCl] | 170 | 35 |
| CCOc1ccc(F)c(N2CCC(Oc3ccc(N4C[C@H](OCCCOC)[C@@H](C)[C@@H]4CC(=O)O)cc3)C(C)C2)c1 (single isomer, unassigned) [Example 14, HCl] | 51 | 7 |
| COCCCO[C@H]1CN(c2ccc(OC3CCN(c4cc(OC)ncc4Cl)CC3CC(C)C)nc2)[C@@H](CC(=O)O)[C@@H]1C (single isomer, unassigned) [Example 18, Isomer 1] | 1300 |  |
| COCCCO[C@H]1CN(c2ccc(OC3CCN(c4cc(OC)ncc4Cl)CC3CC(C)C)nc2)[C@@H](CC(=O)O)[C@@H]1C (single isomer, unassigned) [Example 18, Isomer 2] | 290 |  |
| COCCCO[C@H]1CN(c2ccc(OC3CCN(c4cc(OC)ncc4Cl)CC3CC(C)C)cc2)[C@@H](CC(=O)O)[C@@H]1C (single isomer, unassigned) [Example 19, Isomer 1] | 1500 |  |
| COCCCO[C@H]1CN(c2ccc(OC3CCN(c4cc(OC)ncc4Cl)CC3CC(C)C)cc2)[C@@H](CC(=O)O)[C@@H]1C (single isomer, unassigned) [Example 19, Isomer 2] | 230 |  |
| CCOc1ccc(F)c(N2CCC(Oc3ccc(N4C[C@H](OCCCOC)[C@@H](C)[C@@H]4CC(=O)O)cc3F)C(C)C2)c1 (single isomer, unassigned) [Example 20] | 110 |  |
| COCCCO[C@H]1CN(c2cnc(OC3CCN(c4cc(OC)ncc4Cl)CC3C)c(F)c2)[C@@H](CC(=O)O)[C@@H]1C (single isomer, unassigned) [Example 22] | 89 |  |
| COCCCO[C@H]1CN(c2ccc(OC3CCN(c4cc(OC)ncc4Cl)CC3C)nc2)[C@@H](CC(=O)O)[C@@H]1C (stereo partly drawn) [Example 2, 2-((2S,3S,4R)-1-(6-(((3,4-trans)-1-(5-Chloro-2-methoxypyridin-4-yl)-3-methylpiperidin-4-yl)oxy)pyridin-3-yl)-4-(3-methoxypropoxy)-3-methylpyrrolidin-2-yl)acetic acid, HCl] | 180 | 27 |
| CCOc1ccc(F)c(N2CCC(Oc3ccc(N4C[C@H](OCCCOC)[C@@H](C)[C@@H]4CC(=O)O)cc3)CC2)c1 [Example 3, 2-((2S,3S,4R)-1-(4-((1-(5-Ethoxy-2-fluorophenyl)piperidin-4-yl)oxy)phenyl)-4-(3-methoxypropoxy)-3-methylpyrrolidin-2-yl)acetic acid, HCl] | 200 |  |
| COCCCO[C@H]1CN(c2ccc(OC3CCN(c4cc(OC)ncc4Cl)CC3)cc2)[C@@H](CC(=O)O)[C@@H]1C [Example 4, 2-((2S,3S,4R)-1-(4-((1-(5-Chloro-2-methoxypyridin-4-yl)piperidin-4-yl)oxy)phenyl)-4-(3-methoxypropoxy)-3-methylpyrrolidin-2-yl)acetic acid] | 73 | 13 |
| CCOc1ccc(F)c(N2CCC(Oc3ccc(N4C[C@H](OCCCOC)[C@@H](C)[C@@H]4CC(=O)O)cn3)CC2)c1 [Example 5, 2-((2S,3S,4R)-1-(6-((1-(5-Ethoxy-2-fluorophenyl)piperidin-4-yl)oxy)pyridin-3-yl)-4-(3-methoxypropoxy)-3-methylpyrrolidin-2-yl)acetic acid] | 170 |  |
| COCCCO[C@H]1CN(c2ccc(OC3CCN(c4cc(OC)ncc4Cl)CC3)nc2)[C@@H](CC(=O)O)[C@@H]1C [Example 6, 2-((2S,3S,4R)-1-(6-((1-(5-Chloro-2-methoxypyridin-4-yl)piperidin-4-yl)oxy)pyridin-3-yl)-4-(3-methoxypropoxy)-3-methylpyrrolidin-2-yl)acetic acid] | 200 | 19 |
| CCc1cc(N2CCC(Oc3ccc(N4C[C@H](OCCCOC)[C@@H](C)[C@@H]4CC(=O)O)cc3)CC2)c(Cl)cn1 [Example 8, 2-((2S,3S,4R)-1-(4-((1-(5-Chloro-2-ethylpyridin-4-yl)piperidin-4-yl)oxy)phenyl)-4-(3-methoxypropoxy)-3-methylpyrrolidin-2-yl)acetic acid, HCl] | 1100 |  |
| CCOc1ccc(F)c(N2CCC(Oc3ccc(N4C[C@H](CCCOC)C[C@@H]4CC(=O)O)cc3)CC2)c1 [Example 10, 2-((2R,4R)-1-(4-((1-(5-Ethoxy-2-fluorophenyl)piperidin-4-yl)oxy)phenyl)-4-(3-methoxypropyl)pyrrolidin-2-yl)acetic acid, TFA] | 380 | 47 |
| CCOc1ccc(F)c(N2CCC(Oc3ccc(N4C[C@H](OCCOC)C[C@@H]4CC(=O)O)cc3)CC2)c1 [Example 13, 2-((2R,4R)-1-(4-((1-(5-Ethoxy-2-fluorophenyl)piperidin-4-yl)oxy)phenyl)-4-(2-methoxyethoxy)pyrrolidin-2-yl)acetic acid, TFA] | 1000 |  |
| CCOc1ccc(F)c(N2CCC(Oc3ccc(N4C[C@H](OCCCS(C)(=O)=O)[C@@H](C)[C@@H]4CC(=O)O)cc3)CC2)c1 [Example 16, 2-((2S,3 S,4R)-1-(4-((1-(5-Ethoxy-2-fluorophenyl)piperidin-4-yl)oxy)phenyl)-3-methyl-4-(3-(methylsulfonyl)propoxy)pyrrolidin-2-yl)acetic acid] | 980 |  |

The remaining lines, values ahead:

| EC50 [1] [nM] | EC50 [2] [nM] | Compound |
| --- | --- | --- |
| 110 |  | CCCCOc1cc(N2C[C@H](OCCCOC)[C@@H](C)[C@@H]2CC(=O)O)cnc1OC1CCN(c2cc(OC)ncc2Cl)CC1C (single isomer, unassigned) [Example 23, TFA] |
| 65 |  | COCCCO[C@H]1CN(c2cnc(OC3CCN(c4cc(OC)ncc4Cl)CC3C)c(C(F)(F)F)c2)[C@@H](CC(=O)O)[C@@H]1C (single isomer, unassigned) [Example 24] |
| 300 |  | COCCCO[C@H]1CN(c2cnc(OC3CCN(c4cc(OC)ncc4Cl)CC3C)c(C)c2)[C@@H](CC(=O)O)[C@@H]1C (single isomer, unassigned) [Example 25] |
| 110 |  | COCCCO[C@H]1CN(c2ccc(OC3CCN(c4cc(OC)ncc4Cl)CC3C)cc2F)[C@@H](CC(=O)O)[C@@H]1C (single isomer, unassigned) [Example 26] |
| 2000 |  | COCCCO[C@H]1CN(c2ccc(OC3CCN(c4cc(OC)ncc4Cl)CC3C)cc2F)[C@H](CC(=O)O)[C@@H]1C (single isomer, unassigned) [Example 27] |
| 180 |  | COCCOCO[C@H]1CN(c2ccc(OC3CCN(c4cc(OC)ncc4Cl)CC3C)cc2)[C@@H](CC(=O)O)[C@@H]1C (single isomer, unassigned) [Example 28] |
| 61 |  | COCCCO[C@H]1CN(c2cnc(OC3CCN(c4cc(OC)ncc4Cl)CC3)c(C(F)(F)F)c2)[C@@H](CC(=O)O)[C@@H]1C [Example 30, 2-((2S,3S,4R)-1-(6-((1-(5-Chloro-2-methoxypyridin-4-yl)piperidin-4-yl)oxy)-5-(trifluoromethyl)pyridin-3-yl)-4-(3-methoxypropoxy)-3-methylpyrrolidin-2-yl) acetic acid] |
| 190 |  | COc1cc(N2CCC(Oc3ccc(N4C[C@H](OCCCC#N)[C@@H](C)[C@@H]4CC(=O)O)cc3)C(C)C2)c(Cl)cn1 (stereo partly drawn) [Example 32, 2-((2S,3S,4R)-1-(4-(((3,4-trans)-1-(5-Chloro-2-methoxypyridin-4-yl)-3-methylpiperidin-4-yl)oxy)phenyl)-4-(3-cyanopropoxy)-3-methylpyrrolidin-2-yl)acetic acid] |
| 101 |  | COCCCO[C@H]1CN(c2cnc(O[C@@H]3CCN(c4cc(OC)ncc4Cl)C[C@H]3C)nc2)[C@@H](CC(=O)O)[C@@H]1C [Example 33, 2-((2S,3 S,4R)-1-(2-(((3R,4R)-1-(5-Chloro-2-methoxypyridin-4-yl)-3-methylpiperidin-4-yl)oxy)pyrimidin-5-yl)-4-(3-methoxypropoxy)-3-methylpyrrolidin-2-yl)acetic acid] |
